# Test results published in patent EP1151753B1, “PREVENTIVE AND THERAPEUTIC AGENTS FOR ARTERIOSCLEROSIS” (CCI CORPORATION, priority 1999, dated 2000).
# Legend:
# [1] = Lipoprotein analysis, cholesterol-loaded rabbit model; type: in vivo, New Zealand White (NZW) type rabbits; conditions: cholesterol-loaded NZW rabbits
# Source text: (§1) In the test, female and male New Zealand White (NZW) type rabbits (SPF: Kitayama Labels K.K.) which were seven weeks old at the time of arrival at the laboratory were subjected to quarantine and two weeks' domestication and visually inspected as to the general condition and, after the absence of abnormality was confirmed, put to use. The body weights at the time of starting administration (at the age of nine weeks) were in the range of 1.8 - 2.2 kg in the case of male rabbits and in the range of 1.6 - 2.0 kg in the case of female rabbits. Throughout the entire duration of the test, the animals were raised as accommodated one each in hanger cages of aluminum installed on a stainless steel rack inside a clean feeding chamber set at a temperature in the range of 20 - 26°, a relative humidity in the range of 40 - 70%, a number of ventilations in the range of 10 - 20 turns/hour, and an illumination time within the range of 12 hours (7.00 - 19:00). They were fed on a commercially available radioactively sterilized solid feed (a product containing 1% of cholesterol, made by Oriental Kobo K.K. and sold under the product code of "RC4") and they were left freely drinking the tap water delivered by an automatic water supplying device.
# The dosage of TMG was set at 800 mg/head/day. The TMG was solved in reagent grade ethanol. The produced solution was sprayed on the 1% cholesterol-containing feed and the wet feed was left drying in the air. A mixed feed was prepared so as to contain 800 mg of TMG per 100 g of the feed. The mixed feed was given to the rabbits every morning at a rate of 100 g/day per head for 12 weeks for the sake of attaining oral consumption of the TMG. The feed for the control group was obtained by spraying ethanol alone on a feed containing 1% cholesterol and air-drying the wet feed. It was given to the rabbits of the control group at a rate of 100 g/day per heat for 12 weeks. […]
# About 10 ml of blood was taken from the heart or the auricular artery of a rabbit experiencing 12 hours' fast prior to the start of the administration and on the 6th and 12th weeks of administration. […] The blood serum was ultracentrifuged by Hatch and Lees method (Hatch, F. T., and Lees, R. S. (1968) Advan, Lipid Res. 6, 1-68) using a centrifuge (the rotor; Beckman 70.1 Ti) made by Beckman and sold under the product code of "L-70") to separate low specific gravity lipoprotein (1.006 < d < 1.063), with the cholesterol amount of the LDL fraction determined by the cholesterol oxidase DASO method and the amount of HDL-cholesterol determined by subjecting the blood serum to the phospho-tungstic acid magnesium salt precipitation method. The amount of TMG was determined by the HPLC method.
# [2] = Biochemical test of blood and measurement of body weight, cholesterol-loaded rabbit model; type: in vivo, New Zealand White (NZW) type rabbits; conditions: cholesterol-loaded NZW rabbits
# Protocol: Now, the pharmacogenic effect of the agent of this invention for preventing and curing arteriosclerosis will be described specifically below with reference to a pharmacological test using high cholesterol-loaded rabbits and the WHHL (Watanabe heritable hyperlipidemic) rabbits forming a model of the familial high-cholesterol blood disease. The data were wholly reported by the average ± standard error (SE) and the significant differences among separate groups were determined by the Student's t-test. The risk factor, p < 0.05, was rated as forming a significance of difference.
# as §1
# The dosage of TMG was set at 800 mg/head/day. The TMG was solved in reagent grade ethanol. The produced solution was sprayed on the 1% cholesterol-containing feed and the wet feed was left drying in the air. A mixed feed was prepared so as to contain 800 mg of TMG per 100 g of the feed. The mixed feed was given to the rabbits every morning at a rate of 100 g/day per head for 12 weeks for the sake of attaining oral consumption of the TMG. The feed for the control group was obtained by spraying ethanol alone on a feed containing 1% cholesterol and air-drying the wet feed. It was given to the rabbits of the control group at a rate of 100 g/day per heat for 12 weeks.
# A control group and a TMG-administration group were formed; the control group of a total of six heads composed of three males and three females and the TMG-administration group of a total of eight heads composed of four males and four females. These animals were apportioned to the two groups randomly and nevertheless elaborately so as to avoid confusion of the children of one brood in either group to the fullest possible extent and equalize as much as permissible the average body weights and the average total cholesterol numbers in blood serum of the two groups with the body weights and the total cholesterol numbers found at the time of completion of the domestication.
# About 6 ml of blood was taken from the heart or the auricular artery of a rabbit experiencing 12 hours' fast prior to the start of the administration, within 4 and 8 weeks of undergoing administration, and on the final day of administration (12th week). The blood was centrifuged to separate blood serum and the blood serum was analyzed for the items shown in Table 1 by the use of an automatic analyzer (made by Hitachi. Ltd. And sold under the product code of "736-20"). The body weight of each rabbit was measured at the rate of once a week throughout the entire duration of the administration.
# [3] = TMG 800 mg/head/day for 12 weeks
# [4] = TMG 800 mg/head/day in feed, 12th week of administration, average ± SE
# [5] = blood serum, TMG 800 mg/head/day in feed, 12th week of administration, average ± SE
structure (smiles),measurement,setting,value
"Cc1c(C)c2c(c(C)c1O)CCC(C)(C[C@H]1O[C@H](CO)[C@@H](O)[C@H](O)[C@H]1O)O2 (stereo partly drawn) [TMG, 2-(α-D-glucopyranosyl)methyl-2,5,7,8-tetramethyl chroman-6-ol]",LDL-TMG,"[1]; amount of TMG in LDL fraction by HPLC, TMG 800 mg/head/day in feed, 12th week of administration",not detected
same,activity of lowering the HDL-cholesterol,[1]; [3],no activity
same,HDL-CHO,[1]; [4],33 ± 5 mg/dL
same,LDL-CHO,[1]; [4],620 ± 34 mg/dL
same,ALB,[2]; [5],2.3 ± 0.1 g/dL
same,ALP,[2]; [5],174 ± 15 mU/ml
same,ChE,[2]; [5],0.35 ± 0.06 U/ml
same,GOT,[2]; [5],19.7±2.2 mU/ml
same,GPT,[2]; [5],72.9 ± 9.1 mU/ml
same,LDH,[2]; [5],147 ± 31 mU/ml
same,PL,[2]; [5],851 ± 42 mg/dL
same,T-CHO,[2]; [5],2628 ± 148 mg/dL
same,TG,[2]; [5],250 ± 76 mg/dL
same,"activity of lowering the blood serum lipids (T-CHO, TG, PL, LDL-CHO)",[2]; [3],no activity
same,biochemical test of blood,[2]; [3],no sign of abnormality
same,Body weight,[2]; [4],2.89 ± 0.11 kg
same,"rise of the GOT, an index of the development of hepatopathy","[2]; TMG 800 mg/head/day, versus control group",significantly repressing the injury
